Results published in patent publication US20250127800A1, “PYRIMIDINE OR PYRIDINE DERIVATIVE AND MEDICINAL USE THEREOF” (SIGNET THERAPEUTICS INC., priority 2021, published 2025).

Experiments:
FAK (p-FAK 397) = test: Western Blot of phosphorylated FAK in DGC organoid model; type: cell-based; conditions: 48 hours, dose-dependent
Experimental: (§1) Experimental procedures: Organoids were amplified in 6-well plates (7 Matrigel aliquots per well) for 2-3 days prior to evaluation. After passage, 1000 cells were inoculated in 5 μl Matrigel aliquot into each well containing 100 μl 50% L-WRN medium in a 96-well plate. Organoids were cultured for 24 hours, followed by addition of the compounds. Compounds were dissolved in DMSO as stock solution (with a final concentration of […]), which was then diluted with DMSO to 1000× concentration of the testing concentration. Culture medium was added to the stock solution to dilute to the testing concentration. The diluted solution was added to the culture plate. Once compound was added, culture medium was no longer added, and no further compound added. After the organoids were cultured for a specified number of days, the effects of compounds were evaluated by the following three methods, each using DMSO as negative control.
(§2) 2. After cell culture in accordance with the above procedure and culture with compounds for 48 hours, the cells were lysed, and proteins were extracted and tested by Western Blot. After gel imaging, gray values of protein bands were analyzed to investigate the effects of the compounds on phosphorylated FAK and activated YAP in the organoid model. (For detailed methods, please refer to Haisheng Zhang, Cancer Discovery, 2020).

[1] = system: activated YAP (non-p-YAP); test: Western Blot of activated YAP in DGC organoid model; type: cell-based; conditions: 48 hours, dose-dependent
Experimental: as §1, §2

FAK [2] = target: T1, FAK (Homo sapiens (Human), UniProt Q05397); test: Time-dependent FAK kinase inhibition activity test; type: biochemical
T1 sequence (Q05397 whole entry, species assumed): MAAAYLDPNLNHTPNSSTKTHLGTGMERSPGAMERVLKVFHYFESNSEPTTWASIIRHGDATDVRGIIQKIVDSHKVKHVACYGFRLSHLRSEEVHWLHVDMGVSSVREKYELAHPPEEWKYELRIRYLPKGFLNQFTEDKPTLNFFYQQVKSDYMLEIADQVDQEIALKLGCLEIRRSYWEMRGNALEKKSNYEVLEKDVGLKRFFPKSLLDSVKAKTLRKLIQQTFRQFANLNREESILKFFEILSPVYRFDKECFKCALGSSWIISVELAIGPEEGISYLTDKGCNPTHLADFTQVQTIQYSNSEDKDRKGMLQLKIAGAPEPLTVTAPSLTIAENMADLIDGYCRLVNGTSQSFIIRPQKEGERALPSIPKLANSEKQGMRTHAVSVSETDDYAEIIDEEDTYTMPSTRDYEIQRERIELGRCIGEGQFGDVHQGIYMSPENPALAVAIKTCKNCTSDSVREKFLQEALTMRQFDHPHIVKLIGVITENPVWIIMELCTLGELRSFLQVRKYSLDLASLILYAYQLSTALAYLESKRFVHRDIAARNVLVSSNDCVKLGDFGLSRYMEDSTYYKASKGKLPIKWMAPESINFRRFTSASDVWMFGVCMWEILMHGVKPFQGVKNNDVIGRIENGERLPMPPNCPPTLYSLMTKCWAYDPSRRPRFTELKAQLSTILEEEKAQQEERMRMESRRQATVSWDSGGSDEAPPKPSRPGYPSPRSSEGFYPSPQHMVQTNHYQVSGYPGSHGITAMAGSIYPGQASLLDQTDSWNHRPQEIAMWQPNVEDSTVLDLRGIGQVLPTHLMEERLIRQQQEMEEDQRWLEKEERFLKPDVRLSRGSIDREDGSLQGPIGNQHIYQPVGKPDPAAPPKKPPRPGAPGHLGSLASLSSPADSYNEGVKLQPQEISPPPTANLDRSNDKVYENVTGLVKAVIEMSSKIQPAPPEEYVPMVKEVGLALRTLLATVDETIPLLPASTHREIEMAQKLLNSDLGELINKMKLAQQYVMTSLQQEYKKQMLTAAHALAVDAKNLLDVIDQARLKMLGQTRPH

SNU-668 cells = test: Cell proliferation inhibition, SNU-668 (CELL TITER-GLO); type: cell-based; conditions: Homo sapiens, SNU668, 96 h; SNU-668, 4 days
Experimental: (§3) • a. SNU-668 cells (catalog number: 00668, KCLB) or NUGC4 cells (catalog number: 0834, JCRB) were allowed to grow to 70%-80% confluence, the supernatant of the culture medium was pipetitted off, rinsed once with PBS and then pipetitted off; • b. To a 10 cm dish was added 1 mL of 0.25% trypsin, votexed to homogenity and then place into incubator for digestion for 2-3 min; • c. The culture dish is removed from the incubator added with 2-3 mL complete culture medium to terminate the digestion, pipetitted into a 15 mL centrifuge tube, and then centrifuged in centrifuge at 1000 rpm for 5 minutes; • d. The supernatant was pipetitted off, and the cells were resuspended in 1 mL of complete culture medium, and then counted; • e. 1000 cells were plated into each well of 96-well plate, and then cultured overnight in a cell incubator, 2) Cell Administration with Compounds • a. Compounds to be tested were dissolved and votexed to homogeneity; • b. Each compound was serielly diluted in 1:3 ratio from 1 mM stock solution to 9 gradient concentrations; • c. The plate seeded with cells was taken out from the incubator, pipetitted off culture medium, and then added slowly in each well with 100 μL fresh culture medium by multi-channel pipette. Wells are labeled by corresponding compounds and concentrations, and then gently added with 100 μL compound-containing culture medium along the well wall by multi-channel pipette; • d. After the addition to all wells, the plate was gently shaken to allow homogeneous spread of the compound, and then put back to the incubator, with time recorded;
(§4) 4 days after the addition of compounds, the culture medium was removed and mixed at 100 μL from each well with cell titer-glo testing liquid in 1:1 ratio. The mixture was incubated with shaking at room temperature for 10 min and then counted with Plate reader.

NUGC4 cells = test: Cell proliferation inhibition, NUGC4 (CELL TITER-GLO); type: cell-based; conditions: Homo sapiens, NUGC-4, 96 h; NUGC4, 4 days
Experimental: as §3, §4

FAK [3] = target: T1, FAK; test: In vitro enzymatic inhibitory activity, FAK kinase (HTRF KinEASE-TK); conditions: FAK kinase, enzyme pre-incubation 15 minutes at 25° C.
[4] = system: diffuse-type gastric cancer (DGC) organoid; test: Cell morphology in diffuse-type gastric cancer (DGC) organoid model; type: cell-based; conditions: 500 nM compound
Experimental: as §1
1. There was a difference in cell morphology between normal cells and the diffuse-type gastric cancer (DGC) organoid model. Normal organoids have hollow spheroid shape, while organoids of diffuse-type gastric cancer have solid grape-like irregular shape. Therefore, the observations of the effect of drugs on cell morphology may be one of the important characteristics for evaluating drug efficacy.

[5] = In vivo pharmacokinetic evaluation in SD rats, gavage; conditions: rat, plasma, po, male SD rats, 5 mg/kg
Experimental: Three male SD rats were administered with compounds in a single dose of 5 mg/kg or 3 mg/kg by gavage, and blood samples were collected before administration and at 0.25, 0.5, 1, 2, 4, 6, 8, and 24 h after administration.
Preparation of solutions of compounds to be dosed at 5 mg/kg: 5.5 mg compound (converted based on purity) was accurately weighed and added to 0.55 mL of DMSO. Clear solutions were obtained after stirring and sonication. 0.5 mL of each of the above solutions was added with 1 mL of Solutol, stirred for 1 minute; and then added with 8.5 mL of physiological saline and stirred for 1 minute, to obtain a clear solution at 0.5 mg/mL concentration.
Preparation of a solution of compounds to be dosed at 3 mg/kg: 3.6 mg compound (converted according to purity) was accurately weighed and added to 0.6 mL of DMSO. Clear solutions were obtained after stirring and sonication. 0.5 mL of each of the above solutions was added with 1 mL of Solutol and stirred for 1 minute; and then added with 8.5 mL of physiological saline and stirred for 1 minute, to obtain a clear solution at 0.3 mg/mL concentration.
Rats were administered the formulations prepared in step 2 by gavage at a dose of 10 mL/kg. The rats were fasted overnight before the administration and resumed feeding 4 hours after administration. Throughout the entire experiment, the animals were free to access drinking water.
The plasma concentration was measured using LC-MS/MS method.

YAP (non-p-YAP) = YAP (non-p-YAP) (Homo sapiens (Human), UniProt P46937); test: Western blot of YAP activity in SNU-668 cell line model; type: cell-based; conditions: SNU668, 24 hours
Experimental: • a. SNU-668 cells (catalog number: 00668, KCLB) were allowed to grow to 70%-80% confluence, the supernatant of the culture medium was pipetitted off, rinsed once with PBS and then pipetitted off; • b. To a 10 cm dish was added 2 mL trypsin, and digested in an incubator for 3-5 min; • c. The culture dish is removed from the incubator added with 5 mL 1640 medium (containing 10% FBS) to terminate the digestion, pipetitted into a 15 mL centrifuge tube, and then centrifuged in centrifuge at 1000 rpm for 5 minutes; • d. The supernatant was pipetitted off, added with 5 mL 1640 medium (containing 10% FBS). the cells were resuspended thoroughly and mix well, then counted; • e. 1.5×10^5 cells were seeded into each well of 12-well plate, and then cultured in a cell incubator for 24 h. 2) Cell Treatment with Compounds • a. Stock solutions of the compounds to be tested (1 mM) were diluted in DMSO, and blown and nixed several times to homogeneity; • b. The plate seeded with cells was taken out from the incubator, gently added in wells with 1 ul 1 mM stocks (1000× diluted) along the well wall, and then gently shaken immediately to homogeneity; • c. After the addition to all wells, the plate was gently shaken to allow homogeneous spread of the compound, and then put back to the incubator, with time recorded; Samples were collected after 24 hours.
• a. […]

IC50 (SNU-668 cells) [nM]	IC50 (FAK [3]) [nM]	SMILES	inhibition of phosphorylation of FAK (p-FAK 397) (FAK (p-FAK 397))	inhibition of activated YAP (non-p-YAP) [1]	IC50 (NUGC4 cells) [nM]	other results
50	2.68	C=CC(=O)N1CCCC(c2cccc(NCc3ccc(Nc4ncc(C(F)(F)F)c(Nc5ccccc5C(=O)NC)n4)cc3)c2)C1 (centres unmarked) [Compound 6, 2-((2-((4-(((3-(1-acryloylpiperidin-3-yl)phenyl)amino)methyl)phenyl)amino)-5-(trifluoromethyl)pyrimidin-4-yl)amino)-N-methylbenzamide]	can inhibit the phosphorylation of FAK (p-FAK 397)	inhibit the activated YAP (non-p-YAP)	20	IC50 (FAK [2]; enzyme pre-incubation 60 minutes at 25° C.): 0.662 nM; effective inhibition time on the kinase activity of FAK (FAK [2]; pre-incubation 0, 15 and 60 minutes, compared to defactinib): longer effective inhibition time
	3.71	C=CC(=O)N1CCCC1c1ccc(NCc2ccc(Nc3ncc(C(F)(F)F)c(Nc4ccccc4C(=O)NC)n3)cc2)cc1 (centres unmarked) [Compound 9, 2-((2-((4-(((4-(1-acryloylpyrrolidin-2-yl)phenyl)amino)methyl)phenyl)amino)-5-(trifluoromethyl)pyrimidin-4-yl)amino)-N-methylbenzamide]	can inhibit the phosphorylation of FAK (p-FAK 397)	inhibit the activated YAP (non-p-YAP)		effect on cell morphology of DGC organoid [4]: significantly better effects than defactinib and IN-10018
	5.67	C=CC(=O)N1CCCC(c2cccc(NCc3ccc(Nc4ncc(C(F)(F)F)c(Nc5ccccc5C(=O)NOC)n4)cc3)c2)C1 (centres unmarked) [Compound 11, 2-((2-((4-(((3-(1-acryloylpiperidin-3-yl)phenyl)amino)methyl)phenyl)amino)-5-(trifluoromethyl)pyrimidin-4-yl)amino)-N-methoxybenzamide]	can inhibit the phosphorylation of FAK (p-FAK 397)	inhibit the activated YAP (non-p-YAP)	90	effect on cell morphology of DGC organoid [4]: significantly better effects than defactinib and IN-10018
	19.8	C=CC(=O)N1CCCC(c2cccc(NCc3ccc(Nc4ncc(C(F)(F)F)c(Nc5cccc(F)c5C(=O)NC)n4)cc3)c2)C1 (centres unmarked) [Compound 13, 2-((2-((4-(((3-(1-acryloylpiperidin-3-yl)phenyl)amino)methyl)phenyl)amino)-5-(trifluoromethyl)pyrimidin-4-yl)amino)-6-fluoro-N-methylbenzamide]	can inhibit the phosphorylation of FAK (p-FAK 397)	inhibit the activated YAP (non-p-YAP)		
210	10.4	C=CC(=O)N1CCCC(c2cccc(NCc3ccc(Nc4ncc(C(F)(F)F)c(Nc5ccccc5S(=O)(=O)NC(C)C)n4)cc3)c2)C1 (centres unmarked) [Compound 19, 2-((2-((4-(((3-(1-acryloylpiperidin-3-yl)phenyl)amino)methyl)phenyl)amino)-5-(trifluoromethyl)pyrimidin-4-yl)amino)-N-isopropylbenzenesulfonamide]			90	
		CNC(=O)c1ccc(Nc2ncc(C(F)(F)F)c(NCc3nccnc3N(C)S(C)(=O)=O)n2)cc1 [Defactinib, reference compound]			1370	AUC(0-inf) [5]: 0.441 µM·h; AUC(0-t) [5]: 0.424 µM·h; Cmax [5]: 99.5 nM; Tmax [5]: 4 h; half-life [5]: 1.2 h; inhibition of YAP activity (non-p-YAP) (YAP (non-p-YAP)): no inhibiting effect on YAP activity
8400		COc1cc(C(=O)NC2CCN(C)CC2)c(F)cc1Nc1ncc(C(F)(F)F)c(Oc2cccc3c2C(=O)N(C)C3)n1 [IN10018, reference compound]			3500	inhibition of YAP activity (non-p-YAP) (YAP (non-p-YAP)): no inhibiting effect on YAP activity
